Values of other authors in US5670663A (priority 1996, dated 1997).

Columns and labels:
31-15 = conditions: antibody printed 31-15
8A10 = conditions: monoclonal antibody 8A10
3C6 = conditions: monoclonal antibody 3C6

Structure (SMILES): CC(=O)O[C@H]1C(=O)[C@]2(C)[C@H](O)C[C@H]3OC[C@@]3(OC(C)=O)[C@H]2[C@H](OC(=O)c2ccccc2)[C@]2(O)C[C@H](O)C(C)=C1C2(C)C [baccatin V]
- relative affinity of antibody for baccatin III and its 7-epi isomer baccatin V (31-15): binds with equal affinity

Structure (SMILES): CC(=O)O[C@@]12CO[C@@H]1C[C@H](O)[C@@]1(C)C(=O)[C@H](O)C3=C(C)[C@@H](O)C[C@@](O)([C@@H](OC(=O)c4ccccc4)[C@H]21)C3(C)C [10-deacetylbaccatin III]
- cross reactivity with 8A10 (8A10): cross reacts

Structure (SMILES): CC(=O)O[C@H]1C(=O)[C@@]2(C)[C@H]([C@H](OC(=O)c3ccccc3)[C@]3(O)C[C@H](O)C(C)=C1C3(C)C)[C@]1(OC(C)=O)CO[C@@H]1C[C@@H]2O [baccatin III]
- cross reactivity with 8A10 (8A10): cross reacts
- relative affinity of antibody for baccatin III and its 7-epi isomer baccatin V (31-15): binds with equal affinity

Structure (SMILES): C/C=C(\C)C(=O)N[C@@H](c1ccccc1)[C@@H](O)C(=O)O[C@H]1C[C@@]2(O)[C@@H](OC(=O)c3ccccc3)[C@@H]3[C@]4(OC(C)=O)CO[C@@H]4C[C@H](O)[C@@]3(C)C(=O)[C@H](OC(C)=O)C(=C1C)C2(C)C [Cephalomannine]
- cross reactivity with 8A10 (8A10): cross reacts

Structure (SMILES): CC(=O)O[C@H]1C(=O)[C@@]2(C)[C@H]([C@H](OC(=O)c3ccccc3)[C@]3(O)C[C@H](OC(=O)[C@H](O)[C@@H](NC(=O)c4ccccc4)c4ccccc4)C(C)=C1C3(C)C)[C@]1(OC(C)=O)CO[C@@H]1C[C@@H]2O [paclitaxel]
- cross reactivity with 8A10 (8A10): cross reacts
- activity against breast, lung and other cancers (cancer; breast, lung and other cancers): shown activity
- antitumor activity (cancer; general statement): significant antitumor activity
- reactivity with 3C6 (3C6): specifically reactive
